The values below come from US20120165319A1, “INHIBITORS OF INTERLEUKIN-1 BETA CONVERTING ENZYME” (VERTEX PHARMACEUTICALS INCORPORATED, priority 1995, published 2012).

For one series, the system named is IL-1β, human whole blood. The experiment in a line: Whole blood assay for IL-1β production. The series is classed as cell-based. In short, it runs like this: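 Human whole blood collected on Na2EDTA was treated with serially diluted compound in saline and then stimulated with LPS at 5.0 ng/ml final, for 16-18 h at 30 °C, in duplicate or triplicate. Plasma IL-1β was measured by ELISA at 1:200 dilution.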

The next series addresses T1, ICE (Homo sapiens, UniProt P29466).
T1 sequence (P29466 120-297 limits assumed): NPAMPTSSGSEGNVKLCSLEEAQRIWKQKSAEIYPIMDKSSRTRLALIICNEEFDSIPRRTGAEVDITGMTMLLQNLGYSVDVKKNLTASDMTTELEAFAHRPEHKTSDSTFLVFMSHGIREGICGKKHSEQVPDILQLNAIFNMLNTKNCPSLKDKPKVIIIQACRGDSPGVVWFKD
T1 sequence (P29466 317-404 limits assumed): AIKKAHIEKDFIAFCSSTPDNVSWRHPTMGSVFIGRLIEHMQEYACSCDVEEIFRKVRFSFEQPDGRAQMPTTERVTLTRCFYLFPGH
The experiment in a line: Enzyme assay with UV-visible substrate (visible ICE assay, Succinyl-Tyr-Val-Ala-Asp-pNitroanilide). The format is biochemical. In a few lines:
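ICE preincubated with inhibitor in DMSO for 15 min at room temperature, then Suc-Tyr-Val-Ala-Asp-pNA added. pNA release read at 405-603 nm for 20 min at 37 °C, rate from linear fit in mOD/min. Ki and inhibition mode from fits of rates at varying inhibitor concentrations to standard kinetic equations.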

The nature of series [1]: In vivo rat clearance assay. As to conditions: for clearance: plasma, iv. In a few lines: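 Rats cannulated a day beforehand received 10–20 mg/kg by intravenous jugular dosing in propylene glycol/saline with 100 mM sodium bicarbonate. Carotid blood was sampled from 0 to 90 min, and plasma was extracted with acetonitrile/0.1% TFA for HPLC quantification. Clearance from non-linear regression pharmacokinetic analysis.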

The mark [2] stands for this setting: Homo sapiens, * = values obtained upon reassay, read-out: Whole human blood IC50.
[3] abbreviates: Homo sapiens, Table 17, read-out: Whole human blood IC50.
[4] abbreviates: Table 18, read-out: Whole human blood IC5O.
Where [5] appears, read: * = values obtained upon reassay, read-out: Whole human blood IC50.

Read-outs that look alike come from different tables or passages of the source. Where only a bound is given, the exact number is not on record here.

What is called Ki is the equilibrium dissociation constant of an inhibitor or competing ligand from its target. High values mean lower affinity, low ones higher affinity. What is called clearance is the rate of elimination divided by the concentration. Take `O=C[C@H](CC(=O)O)NC(=O)[C@@H]1CCCN2C(=O)CCN(NC(=O)c3ccccc3)C(=O)N12` [Compound 265, [3S(4S)]3-(7-Benzamido-6,10-dioxo-1,2,3,4,7,8,9,10-octahydro-6H-pyridazino[1,2-a][1,2,4]triazepine-4-carboxamido)-4-oxobutanoic acid]: the IC50 in the series with IL-1β, human whole blood (setting [2]) is 1400 nM. The compound further gave a Ki on ICE (Table 5) of 47 nM. Besides, the clearance in series [1] (10-20 mg/kg) is 20 mL/min/kg.
Taken in the same sequence, the figures for `COc1cc(C(=O)N[C@H]2CCC(=O)N3CCC[C@@H](C(=O)N[C@H](C=O)CC(=O)O)N3C2=O)cc(OC)c1OC` [Compound 417, [3S(1S,9S)]3-[6,10-Dioxo-1,2,3,4,7,8,9,10-octahydro-9-(3,4,5-trimethoxybenzoylamino)-6H-pyridazino[1,2-a][1,2]diazepine-1-carboxamido]-4-oxobutanoic acid] were 6000 nM, 8 nM and 22 mL/min/kg.
As to `O=C[C@H](CC(=O)O)NC(=O)[C@@H]1CCCN2C(=O)CC[C@H](NC(=O)c3cc(Cl)c(O)c(Cl)c3)C(=O)N12` [Compound 214k, [3S(1S,9S)]3-(9-(3,5-Dichloro-4-hydroxybenzoyl)amino-6,10-dioxo-1,2,3,4,7,8,9,10-octahydro-6H-pyridazino[1,2-a][1,2]diazepine-1-carboxamido)-4-oxobutanoic acid], the IC50 with IL-1β, human whole blood (setting [3]) was 580 nM. Besides, the inhibition constant (Ki) at ICE (Table 17) amounted to 0.2 nM. Also, in series [1] (Table 17), the clearance came to 22 mL/min/kg.
On to `Cc1cc(C(=O)N[C@H]2CCC(=O)N3CCC[C@@H](C(=O)N[C@H](C=O)CC(=O)O)N3C2=O)cc(C)c1O` [Compound 214w], for which the IC50 in the series with IL-1β, human whole blood (Table 17, read-out: Whole human blood IC50) worked out at 370 nM. The same compound registered a Ki at ICE (Table 17) of 0.6 nM. In addition, in series [1] (Table 17), the “Clearance Rat, i.v.” value was determined as 15 mL/min/kg.
Consider “[3S(1S,9S)]3-[(6,10-Dioxo-9-(methanesulphonylamino)-1,2,3,4,7,8,9,10-octahydro-6H-pyridazino[1,2-a][1,2]diazepine-1-carboxamido]-5-(5-methyl-3-phenylisoxazoyloxy)-4-oxopentanoic acid [505 b]”, for which, in the series on IL-1β, human whole blood (setting [4]), the IC50 was 2100 nM. In addition, the “Clearance Rat, i.v.” value in series [1] (Table 18) was found to be 196 mL/min/kg.
As to `O=C[C@H](CC(=O)O)NC(=O)[C@@H]1CCCN2C(=O)CC[C@H](NC(=O)c3cccc(Cl)c3)C(=O)N12` [Compound 455], the IC50 is 2600 nM in the series with IL-1β, human whole blood (setting [5]) and 2800 nM with IL-1β, human whole blood (setting [2]). This compound also showed a Ki at ICE (Table 5) of 1.2 nM. In series [1] (10-20 mg/kg), this compound returned a clearance of 54 mL/min/kg.
As to `O=C[C@H](CC(=O)O)NC(=O)[C@@H]1CCCN2C(=O)CCN(NC(=O)c3cc4ccccc4s3)C(=O)N12` [Compound 1053, [3S(4S)]3-[7-(Benzo[b]thiophene-2-carbonyl)amino-6,10-dioxo-1,2,3,4,7,8,9,10-octahydro-6H-pyridazino[1,2-a][1,2,4]triazepine-4-carboxamido]-4-oxobutanoic acid], the IC50 with IL-1β, human whole blood (setting [3]) was greater than 20000 nM. This compound returned an inhibitory constant (Ki) at ICE (Table 17) of 27 nM. Besides, in series [1] (Table 17), the clearance came to 34 mL/min/kg.
Turning to `O=C[C@H](CC(=O)O)NC(=O)[C@@H]1CCCN2C(=O)CC[C@H](NC(=O)c3ccc4nc[nH]c4c3)C(=O)N12` [Compound 434], the IC50 in the series with IL-1β, human whole blood (setting [5]) worked out at 1300 nM; in the series on IL-1β, human whole blood (setting [2]), 1800 nM. Also, the inhibition constant Ki at ICE (Table 5) was found to be 4.9 nM. Also, the clearance in series [1] (10-20 mg/kg) was 20 mL/min/kg.
For the compound `COC(=O)N[C@H]1CCC(=O)N2CCC[C@@H](C(=O)N[C@@H](CC(=O)O)C(=O)COC(=O)c3c(C)cccc3C)N2C1=O` [Compound 285, [3S(1S,9S)]5-(2,6-Dimethylbenzoyloxy)-3-[6,10-dioxo-9-(methoxycarbonyl)amino-1,2,3,4,7,8,9,10-octahydro-6H-pyridazino[1,2-a][1,2]diazepine-1-carboxamido]-4-oxopentanoic acid], the IC50 with IL-1β, human whole blood (setting [2]) amounted to 1000 nM. Moreover, the clearance in series [1] (10-20 mg/kg) amounted to 50 mL/min/kg.
`Cc1nc(C)c(C(=O)N[C@H]2CCC(=O)N3CCC[C@@H](C(=O)N[C@H](C=O)CC(=O)O)N3C2=O)s1` [Compound 423]: the IC50 in the series with IL-1β, human whole blood (setting [2]) came out at 1500 nM. For the same compound, the affinity on ICE (Table 5), expressed as Ki, was 10 nM. This compound registered a clearance in series [1] (10-20 mg/kg) of 45 mL/min/kg.
For `CC(=O)N1C[C@H](NC(=O)c2cc(Cl)c(O)c(Cl)c2)C(=O)N(CC(=O)N[C@H](C=O)CC(=O)O)c2ccccc21` [Compound 656, (3S)-3-[(3S)-2-Oxo-3-(3,5-dichloro, 4-hydroxybenzoyl)amino-5-acetyl-2,3,4,5-tetrahydro-1H-1,5-benzodiazepine-1-acetylamino-]4-oxo-butyric acid], the IC50 in the series with IL-1β, human whole blood (setting [3]) amounted to 1600 nM. At ICE (Table 17), this compound registered a Ki of 0.6 nM. The compound also displayed a clearance in series [1] (Table 17) of 2.9 mL/min/kg.
Consider `COC(=O)N[C@H]1CCC(=O)N2CCC[C@@H](C(=O)N[C@@H](CC(=O)O)C(=O)COC(=O)c3c(Cl)cccc3Cl)N2C1=O` [Compound 284, [3S(1S,9S)]5-(2,6-Dichlorobenzoyloxy)-3-[6,10-dioxo-9-(methoxycarbonyl)amino-1,2,3,4,7,8,9,10-octahydro-6H-pyridazino[1,2-a][1,2]diazepine-1-carboxamido]-4-oxopentanoic acid], for which the IC50 in the series on IL-1β, human whole blood (setting [2]) came out at 550 nM. This compound had a clearance in series [1] (10-20 mg/kg) of 100 mL/min/kg.
`CN(C)c1ccc(C(=O)N[C@H]2CCC(=O)N3CCC[C@@H](C(=O)N[C@H](C=O)CC(=O)O)N3C2=O)cc1` [Compound 471]: the IC50 with IL-1β, human whole blood (setting [2]) stood at 400 nM. On ICE (Table 5), this compound yielded a Ki of 1 nM. Besides, the clearance in series [1] (10-20 mg/kg) stood at 17 mL/min/kg.
With `COc1c(Cl)cc(C(=O)N[C@H]2CCC(=O)N3CCC[C@@H](C(=O)N[C@H](C=O)CC(=O)O)N3C2=O)cc1Cl` [Compound 214m], in the series on IL-1β, human whole blood (setting [3]), the IC50 stood at 2200 nM. Moreover, at ICE (Table 17), the inhibition constant Ki is 1.5 nM. Also, the clearance in series [1] (Table 17) stood at 33.4 mL/min/kg.
As for `O=C[C@H](CC(=O)O)NC(=O)[C@@H]1CCCN2C(=O)CC[C@H](NC(=O)c3ccc4c(c3)OCO4)C(=O)N12` [Compound 415, [3S(1S,9S)]3-[6,10-Dioxo-9-(3,4-methylenedioxybenzoylamino)-1,2,3,4,7,8,9,10-octahydro-6H-pyridazino[1,2-a][1,2]diazepine-1-carboxamido]-4-oxobutanoic acid], the inhibition constant (Ki) on ICE (Table 5) amounted to 2.5 nM. In series [1] (10-20 mg/kg), this compound registered a clearance of 18 mL/min/kg.
For the compound `O=C[C@H](CC(=O)O)NC(=O)[C@@H]1CCCN2C(=O)CC[C@H](NC(=O)CCc3ccccc3)C(=O)N12` [Compound 47a, [3S(1S,9S)]3-(6,10-Dioxo-octahydro-9-(3-phenylpropionylamino)-6H-pyridazino[1,2-a][1,2]diazepine-1-carboxamido)-4-oxobutanoic acid], in the series on IL-1β, human whole blood (setting [2]), the IC50 came out at 5100 nM. The clearance in series [1] (10-20 mg/kg) is 32 mL/min/kg.
`COC(=O)N[C@H]1CCC(=O)N2CCC[C@@H](C(=O)N[C@@H](CC(=O)O)C(=O)CSc3ncccn3)N2C1=O` [Compound 511c, [3S(1S,9S)]3-[6,10-Dioxo-9-(methoxycarbonyl)-amino-1,2,3,4,7,8,9,10-octahydro-6H-pyridazino[1,2-a][1,2]diazepine-1-carboxamido]-5-(2-mercaptopyrimidine)-4-oxopentanoic acid] yielded an inhibition constant (Ki) at ICE (Table 17) of 730 nM. This compound also showed a clearance in series [1] (Table 17) of 40 mL/min/kg.
With `CS(=O)(=O)N[C@H]1CCC(=O)N2CCC[C@@H](C(=O)N[C@@H](CC(=O)O)C(=O)COC(=O)c3cccc4ccccc34)N2C1=O` [Compound 286, [3S(1S,9S)]3-(6,10-Dioxo-9-methanesulphonylamino-1,2,3,4,7,8,9,10-octahydro-6H-pyridazino[1,2-a][1,2]diazepine-1-carboxamido)-5-(1-naphthoyloxy)-4-oxopentanoic acid], the IC50 in the series on IL-1β, human whole blood (setting [4]) came to 1600 nM. For the same compound, in series [1] (Table 18), the “Clearance Rat, i.v.” value is 119 mL/min/kg.
For the compound `N#C[C@H](CC(=O)O)NC(=O)[C@@H]1CCCN2C(=O)CC[C@H](NC(=O)c3ccccc3)C(=O)N12` [Compound 232e, [3S(1S,9S)]9-(Benzoylamino)-3-[6,10-dioxo-1,2,3,4,7,8,9,10-octahydro-6H-pyridazino-[1,2-a][1,2]diazepine-1-carboxamido]-3-cyanopropanoic acid], at ICE (Table 5), the Ki was determined as 1100 nM. In series [1] (10-20 mg/kg), this compound showed a clearance of 26 mL/min/kg.
As for `O=C(O)C[C@H](NC(=O)[C@@H]1CCCN2C(=O)CC[C@H](NC(=O)c3ccccc3)C(=O)N12)C(=O)COc1cccnc1` [Compound 283, [3S(1S,9S)]3-[9-Benzoylamino-6,10-dioxo-1,2,3,4,7,8,9,10-octahydro-6H-pyridazino[1,2-a][1,2]diazepine-1-carboxamido]-4-oxo-5-(3-pyridyloxy)pentanoic acid], in the series with IL-1β, human whole blood (setting [2]), the IC50 worked out at 450 nM. In addition, the clearance in series [1] (10-20 mg/kg) came to 104 mL/min/kg.
Regarding `O=C(O)C[C@H](NC(=O)[C@@H]1CCCN2C(=O)CC[C@H](NC(=O)c3ccccc3)C(=O)N12)C(=O)CSc1nnnn1-c1ccccc1` [Compound 280, [3S(1S,9S)]3-(9-Benzoylamino-6,10-dioxo-1,2,3,4,7,8,9,10-octahydro-6H-pyridazino[1,2-a][1,2]diazepine-1-carboxamido)-4-oxo-5(1-phenyl-1H-tetrazole-5-thio)pentanoic acid], the IC50 in the series on IL-1β, human whole blood (setting [2]) was greater than 1000 nM. Moreover, the clearance in series [1] (10-20 mg/kg) amounted to 187 mL/min/kg.
